Entries after “also recorded” stand apart in the source; their conditions may differ.
Key:
[1] = tested on: systemic fibrosis induced with hypochlorous acid (HOCI) in Balb/c mice; test: Histological analysis (hematoxylin/eosin, Masson's trichrome, Picrosirius red) of skin, heart and lung in HOCI-induced systemic fibrosis; assay type: in vivo; details: HOCI+Istra vs HOCI group, week 4 to 6
Description: Histological analysis, hematoxylin/eosin staining, Masson's trichrome and Picrosirius red: Tissues for histological and immunohistochemical analyses were fixed in 10% buffered formalin for 24 hours and then included according to standard paraffin protocol. The classic hematoxylin/eosin, Masson and Pricrosirius stainings were performed on 5-6 μm thickness tissue slices that were routinely processed using an automated histology preparer.
(§1) In fact, data obtained from literature indicate that it is possible to find a significant fibrosis in the major organs such as skin, heart, large vessels and lungs, already at the fourth week of induction of the disease: for this reason, the treatment with istradefylline started at the fourth week, carrying on both induction and treatment up to the sixth week.
Animals were divided into 3 groups of 7 animals each. A group was used as control group and was the group of untreated animals (“Sham”); a group was subcutaneously treated with 400 μl of an aqueous solution of hypochlorous acid (HOCI) for 6 weeks; lastly a group was subcutaneously treated with the above-mentioned solution of HOCI at the dose of 400 μl (for 6 weeks) and with istradefylline (from week 4 up to week 6) at the dose of 10 mg/kg per day intraperitoneally and 1 hour after HOCI injection (“HOCI+Istra”). […]

[2] = tested on: vimentin and b-catenin (Wnt/b-catenin pathway); test: Immunofluorescence for vimentin and b-catenin in skin, heart and lung in HOCI-induced systemic fibrosis; assay type: in vivo, Balb/c mice; details: HOCI+Istra vs HOCI group; all studied tissues (skin, lung, heart); 10 mg/kg per day intraperitoneally, week 4 to 6; FIG. 3
Description: Immunofluorescence methods to mark vimentin and b-catenin: For immunohistochemistry the 5 μm tissue slices were incubated with 10 mmol/pH 6.0 citrate buffer in a temperature of 98° C. for 20 min. To reduce the background fluorescence, tissues were kept in a humidified chamber in 2 mmol/L glycine for 30 minutes. For the blocking of nonspecific antigenic sites, incubation was performed for 1 hour with 5% fetal bovine serum diluted in PBS, with the addition of 3% serum bovine albumin and 1% Triton X-100. Primary antibodies (p-Ser552 b-catenin, diluted 1:200; Cell Signal Technologies; Vimentin monoclonal antibody diluted 1:800; Sigma-Aldrich) were diluted in PBS and kept for 1 hour at room temperature. A species-specific antibody from Vector Laboratories was used as a negative control of the reaction. Secondary antibodies labeled with anti-rabbit IgG-fluorescein isothiocyanate (green fluorescence) or with anti-mouse IgG Alexa Fluor 555 (fred fluorescence) were kept for 1 hour at room temperature before mounting the slides and to observe the reaction under the microscope. […]

[3] = tested on: genes encoding TGF-b, Wnt1, Wnt5, Wnt10, DKK1 and Col1A1; test: Quantitative Real-Time PCR of fibrosis-related genes in lungs in HOCI-induced systemic fibrosis; assay type: in vivo, Balb/c mice; details: HOCI+Istra vs HOCI group, 10 mg/kg per day intraperitoneally, week 4 to 6, FIG. 4
Description: Quantitative Real Time PCR Method: Reverse transcription was performed using the Super-Script IV Reverse Transcriptase synthesis kit (Thermo Fisher Scientific) and random primers as indicated in the manufacturer's protocol and 1 μl of cDNA was then used for the PCR reaction by using ready-made primers (to identify Wnt1, Wnt 5, Wnt 10, TGF-b, Collagen 1A1 and DKK1) and Thermo Fisher Scientific master mix in the QuantStudio 6 Flex instrument from Applied Biosystems.
as §1
Animals were divided into 3 groups of 7 animals each. […]
Lungs obtained from the animals of all the experimental groups were subjected to the extraction of the total RNA which was then analyzed with the quantitative Real-Time PCR and specific primers to evaluate the expression of the genes encoding for TGF-b, Wnt1, Wnt5, Wnt10, DKK1 and Col1A1 (type I collagen) measured compared to the expression of the housekeeping gene, b-actin.

CCn1c(=O)c2c(nc(/C=C/c3ccc(OC)c(OC)c3)n2C)n(CC)c1=O [istradefylline, 8-[(1E)-2-(3,4-Dimethoxyphenyl)ethenyl]-1,3-diethyl-3,7-dihydro-7-methyl-1H-purine-2,6-dione]
thickening in skin and at the myocardial and pulmonary level (hematoxylin/eosin) ([1]; istradefylline 10 mg/kg per day intraperitoneally, FIG. 1): significantly reduce the thickening
collagen fibers deposition (Masson trichrome and Picrosirius red) ([1]; skin, lung and heart tissues, 10 mg/kg per day intraperitoneally, FIG. 2, 10 mg/kg/day): lower deposition of collagen fibers; also recorded: significant reduction collagen fibers deposition
positivity of b-catenin (immunofluorescence) [2]: significantly reduced the positivity
positivity of vimentin (immunofluorescence, fibroblast marker) [2]: significantly reduced the positivity
expression of genes related to the fibrotic process (Wnt1, 5, 10 and TGF-b; 'all 3 targets') relative to b-actin [3]: significant reduction in the expression

From patent US20240277718A1, “USE OF […] TO REDUCE ORGAN FIBROSIS” (SUNN[…].R.L., priority 2021, published 2024)
